Assay results from patent publication US6552066B1, “Protein tyrosine kinase inhibitors for treating osteoarthritis” (priority 1995, dated 2003).
Values belong to the compound of their own block, whether it stands above or below them.

Legend:
prostromelysin protein = assay: Western immunoblot of IL-1-induced prostromelysin protein in primary bovine chondrocytes; assay type: cell-based; conditions: for effect on IL-1-induced prostromelysin levels: first experiment; for effect on IL-1α-induced prostromelysin protein levels: repeat experiment
Method: Isolation and culturing of primary bovine articular chondrocytes, as well as addition of inhibitors were performed as indicated above in Example 4. The following protein kinase inhibitors were tested: 1) Protein kinase A (PKA) inhibitors; 0.5 μM H88 (Seikagaku Corp.), 0.5 μM H89 (Seikagaku Corp.), 2) Protein kinase C (PKC) inhibitors; 0.5 μM Calphostin C (Calbiochem), 1.0 μM Chelerythrine (Calbiochem); 3) CA^2+/Calmodulin Kinase II inhibitor; 5.0 μM KN93 (Seikagaku Corp.); 4) Protein tyrosine kinase (PTK) inhibitors; 50 μM Genistein (Calbiochem), 10 μM Herbimycin A (Calbiochem).
After the 24 hour IL-1α incubation, the media of each sample was measured and collected on ice in the presence of the protease inhibitors EGTA (5 mM), Pefabloc (1 mM), pepstatin (1 μg/ml), and NEM (5 mM). Media were concentrated approximately 40 fold using a Centriprep-10 ultrafiltration device (Amicon). Concentrated samples were normalized to equivalent starting concentrations (cell number/culture volume), were reduced in the presence of SDS Laemmli sample buffer and electrophoresed in a precast 12% polyacrylamide gel (BioRad). Protein samples were then electroblotted to nitrocellulose and immunodetected using a primary antibody that recognizes both prostromelysin and stromelysin. Immunoreactive bands were visualized with the ABC detection (Pierce) and an NBT/BCIP color reagent (Sigma).
A repeat of the Western immunoblotting experiment using antistromelysin antibodies was performed. Furthermore, additional inhibitors from four enzyme families were examined: 1) Protein tyrosine kinase (PTK) inhibitors: 1 μM Tyrphostin AG 1296 (Calbiochem), 50 μM Tyrphostin A25 (AG 82) (Calbiochem), 50 μM Tyrphostin AG 126 (Calbiochem); 2) Guanylate cyclase inhibitor; 10 μM LY-83583 (Calbiochem); 3) Casein kinase I inhibitor; 20 μM CKI-7 (Seikagaku Corp.); and 4) Protein kinase G (PKG) and PKA inhibitor; 5.0 μM H89.

[1] = system: aggrecanase cleavage of aggrecan (230K fragment); assay: Aggrecanase neoepitope in IL-1-stimulated chondrocytes, BC-3 antibody immunoblot; assay type: cell-based, bovine
Method: (§1) Primary bovine articular chondrocytes from calf adio-carpal joints were isolated and cultured as above in Example 1, up to and including the addition of the following protein kinase inhibitors: 1) Protein kinase A (PKA) inhibitors; 0.5 μM H88 (Seikagaku Corp.), 0.5 μM H89 (Seikagaku Corp.); 2) Protein kinase C (PKC) inhibitors; 0.5 μM Calphostin C (Calbiochem), 1.0 μM Chelerythrine (Calbiochem); 3) CA^2+/Calmodulin Kinase II inhibitor; 5.0 μM KN93 (Seikagaku Corp.); 4) Protein tyrosine kinase (PTK) inhibitors; 50 μM Genistein (Calbiochem), 10 μM Herbimycin A (Calbiochem). After the 24 hour IL-1α incubation, the media of each sample was measured, and collected on ice in the presence of the protease inhibitors EGTA (5 mM), Pefaloc (1 mM), pepstatin (1 μg/ml), and NEM (5 mM). Media were concentrated approximately 40 fold using a Centriprep-10 ultrafiltration device (Amicon).
(§2) Proteoglycans contained within the media were deglycosylated by incubations with chondroitinase ABC, keratinase, and keratinase II following the procedure of Sandy et al. J Biol Chem (1991) 266:8683-8685 and Sandy et al. J. Clin Invest (1992) 89:1512-1516. Samples of deglycosylated media were subjected to 4-15% gradient SDS-PAGE and transferred to nitrocellulose membranes (2 ml-worth and 6 ml-worth of media were used for 2-B-6 and BC-3 immunoblotting, respectively.) The membranes were blocked with 1% nonfat dry milk and 1% BSA, and then incubated in either the BC-3 or 2-B-6 primary monoclonal antibody for 1 hour. The 2-B-6 antibody detects chondroitin sulfate stubs on chondroitinase-treated proteoglycans (both intact and degradation products. BC-3 antibody detects “ARGSV . . . ,” the new N-terminus (“neoepitope”) resulting from cleavage of aggrecan interglobular domain at Glu^373/ALA^374 by aggrecanase. It is of note to mention that the BC-3 and 2-B-6 antibodies were of low sensitivity. Following 3 washes, membranes were incubated in either alkaline phosphatase-conjugated goat anti-mouse (for the 2-B-6 blot) or biotinylated goat anti-mouse (for the BC-3 blot); followed by alkaline phosphatase-conjugated streptavidin/biotin complex). After washing 3 times, immunoreactive proteins were detected using NBT/BCIP (Sigma) colorimetric substrate.

[2] = system: IL-1-induced aggrecan degradation; assay: Aggrecan degradation in IL-1-stimulated chondrocytes, 2-B-6 antibody immunoblot; assay type: cell-based, bovine
Method: as §1, §2
The 2-B-6 antibody detected intact aggrecan (the uppermost band) and several aggrecan degradation products, along with decorin and biglycan (50K doublet), in the IL-1-treated media samples. […] The bands in the IL-1 sample that are seen at 230K, 200K, 130K and 100K have been previously identified by sequence analysis to result from IL-1-induced “aggrecanase” cleavage.
A repeat of the Western immunoblotting experiment using 2-B-6 antibodies was performed. Furthermore, additional inhibitors from four enzyme families were examined: 1) Protein tyrosine kinase (PTK) inhibitors; 1 μM Tryphostin AG 1296 (Calbiochem), 50 μM Tyrphostin A25 (AG 82) (Calbiochem), 50 μM Tyrphostin AG 126 (Calbiochem), 50 μM Tyrphostin B56 (AG 556) (Calbiochem), 20 μM DAPH (Calbiochem); 2) Guanylate cyclase inhibitor; 10 μM LY-83583 (Calbiochem); 3) Casein kinase I inhibitor; 20 μM CKI-7 (Seikagaku Corp.); and 4) Protein kinase G (PKG) and PKA inhibitor; 5.0 μM H89.

[3] = system: IL-1 induced release of 35S-labelled proteoglycans from chondrocytes; assay: Chondrocyte cell culture matrix breakdown assay (IL-1 induced 35S release); assay type: cell-based, calf (bovine); conditions: for inhibitory effect on IL-1 induced release of 35S-labelled proteoglycans: first experiment; for percent inhibition of IL-1 induced 35S release: repeated assay
Method: A cell culture assay was used to measure the ability of the test compounds to slow the degradation of the extracellular matrix by a metalloproteinase. This assay measured the amount ^35S released from chondrocytes grown in a media with ^35S labeled sodium sulfate. The cell culture assay was carried out as follows:
Two or three 1 to 3 week old calf joints were obtained from an abattoir. The proximal end of the shank was about 4-5′ long to facilitate immobilization in the holder. The joint was kept cool and transported on ice. The exterior of the intact joints was washed well with a suitable anti-microbial soap, rinsed clean with warm water, rinsed in betadine and then finally rinsed with 70% ethanol. Up to this point all steps were done in a manner to ensure that the joint was kept as clean as possible. All subsequent steps were performed in a sterile field (i.e., in a Edgeguard laminar flow tissue culture hood). The joint was immobilized and the synovial fluid was aspirated with a needle and syringe. The joint was then cut open to expose the articular cartilage using a #21 scalpel. Using locking hemostats, forceps and a #15 scalpel, the cartilage was excised in full thickness pieces. Care was taken not to cut too deep into the subchondral bone to prevent bleeding. The cartilage pieces were placed into a 50 mL centrifuge tube containing 25 mL of Delbecco's phosphate buffered saline (D-PBS) supplemented with 1% antibiotic solution (penicillin, streptomycin and fungizone; GIBCO/BRL). The slices from each joint were then placed into separate 50 mL centrifuge tubes. The D-PBS was decanted and replaced with 25 mL of fresh D-PBS supplemented with antibiotics and subsequently agitated gently.
The cartilage pieces were transferred to a fresh 50 mL centrifuge tube and rinsed once more with 25 mL of D-PBS minus antibiotics. An enzymatic digestion solution containing 1 mg/mL of hyaluronidase in serum-free 1:1 DMEM/Ham's F-12 (DMEM/F12) was prepared. This solution was filter sterilized with 0.22 mm Milex-GV filter and kept on ice until ready to use. The cartilage pieces were digested with approximately 5 mL of hyaluronidase solution per joint for 2×15 minutes at 37° C. in the 50 mL centrifuge tube with gentle agitation at the 15 minute mark. This procedure removed residual hyaluronic acid from the surface of the chips. The enzymatic digestion solution was then aspirated and the cartilage pieces were rinsed with 25 mL of D-PBS.
A second enzymatic digestion solution containing 2.5 mg trypsin and 2 mg collagenase P per mL serum-free DMEM/F12 was prepared. This solution was also filter sterilized with a 0.22 mm Millex-GV filter and kept on ice until ready to use. The cartilage pieces were digested with approximately 5 mL of trypsin: collagenase solution per joint for 2×15 minutes at 37° C. in the 50 mL centrifuge tube with gentle agitation at the 15 minute mark. This procedure removed the synovial fibroblasts and any adherent connective tissue from the surface of the chips. The enzymatic digestion solution was then carefully removed and saved and the cartilage pieces were rinsed with 25 mL of D-PBS.
A third enzymatic solution containing 2 mgs of collagenase P (BMB) per mL serum-free DMEM/F12 was prepared. This solution was filter sterilized with a 0.22 mm Millex-GV filter and kept on ice until ready to use. The pre-digested cartilage pieces were finally digested with approximately 20 mL of enzymatic digestion solution per joint for 5-6 hours at 37° C. in a Bellco stirring digestion flask, at which point the cartilage was fully digested away.
The enzymes in the synovial fibroblast and chondrocyte digest were neutralized by addition of an equal volume of DMEM/F12 supplemented with 5% fetal bovine serum. Fibroblasts were plated in DMEM at a cellular density of 6.6×10^3 cells per cm^2. […]

[4] = system: primary bovine articular chondrocytes; assay: In vitro MTT cytotoxicity assay; assay type: cell-based; conditions: 1 μM; 20 hours incubation + 4 hours MTT
Description: The evaluation of cytotoxicity of compounds by in vitro methods allows one to establish criteria which allow rank ordering among compounds. These methods assess cell permeability, release of cytosolic enzymes, and oxidative potential of cells. The use of tetrazolium dyes to assess cytotoxicity has been established in the area of oncology, where such assays were developed to assess the cytotoxic potential of various chemotherapeutic agents. We have adapted the use of the MTT (3-(4,5-dimethylthiazol-2-yl)-2,5-diphenyl tetrazolium bromide) in an assay using primary bovine articular chondrocytes. The procedure for this assay is given below.
Chondrocytes are isolated from bovine calf radio-carpal joints as described in Example 1. Cells are plated in two 96-well plates at 4×10^4 cells per well, in DMEM/F12 media supplemented with 10% fetal bovine serum. The cultures are refed on days 4, 7, 11, 14, 18, 21 and 24. On day 27, the cells are rinsed with PBS, and incubated for 20 hours with 0.2 ml/well of serum-free DMEM/F12 plus 0.1% DMSO, and the test compounds. Genistein (50 μM), Herbimycin (10 μM) and Staurosporine (1 μM) were each used as test compounds. […] The 96-well plate is then read in a microplate reader at 560 nm, with subtraction of absorbance at 750 nm to account for cell debris.

protein kinase C alpha = protein kinase C alpha (Homo sapiens, UniProt P17252); conditions: at 100 μM; cited from earlier work
protein kinase C gamma = protein kinase C gamma (Homo sapiens, UniProt P05129); conditions: at 100 μM; cited from earlier work
protein kinase C beta = protein kinase C beta (Homo sapiens, UniProt P05771); conditions: at 100 μm; cited from earlier work
[5] = system: Ca^2+-calmodulin dependent protein kinase II; conditions: cited from earlier work
bovine cartilage explant = conditions: cited from earlier work

protein kinase C beta, sequence (P05771 whole entry): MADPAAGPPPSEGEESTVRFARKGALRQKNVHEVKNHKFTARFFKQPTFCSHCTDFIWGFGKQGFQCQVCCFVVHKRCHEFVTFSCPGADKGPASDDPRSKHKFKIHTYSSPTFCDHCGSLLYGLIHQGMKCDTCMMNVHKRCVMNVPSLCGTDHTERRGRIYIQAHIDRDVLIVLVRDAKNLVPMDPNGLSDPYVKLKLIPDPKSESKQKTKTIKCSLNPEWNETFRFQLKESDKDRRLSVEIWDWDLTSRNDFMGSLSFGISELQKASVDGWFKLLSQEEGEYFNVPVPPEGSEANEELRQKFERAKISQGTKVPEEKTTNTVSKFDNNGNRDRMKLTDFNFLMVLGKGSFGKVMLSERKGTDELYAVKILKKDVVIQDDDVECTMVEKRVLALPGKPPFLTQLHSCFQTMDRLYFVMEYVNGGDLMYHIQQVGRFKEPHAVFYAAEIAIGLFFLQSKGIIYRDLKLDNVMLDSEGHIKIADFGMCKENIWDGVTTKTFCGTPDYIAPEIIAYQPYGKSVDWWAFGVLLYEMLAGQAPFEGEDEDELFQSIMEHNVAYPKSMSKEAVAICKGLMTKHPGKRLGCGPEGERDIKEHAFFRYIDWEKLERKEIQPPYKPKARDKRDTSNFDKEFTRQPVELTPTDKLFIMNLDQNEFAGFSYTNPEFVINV

BC-3 immunoreactive band at approximately 230K (aggrecanase-mediated fragment) ([1]; 0.5 μM): detected
Compound: O=S(=O)(NCCNC/C=C/c1ccc(Br)cc1)c1cccc2cnccc12 [H89]
effect on IL-1-induced prostromelysin levels (prostromelysin protein; 0.5 μM): no effect
band pattern (ratio of intact aggrecan to 230K fragment), 2-B-6 ([2]; 0.5 μM): pattern similar to IL-1 alone
inhibitory effect on IL-1 induced release of 35S-labelled proteoglycans ([3]; 0.5 μM): no effect
percent inhibition of IL-1 induced 35S release ([3]; 0.5 μM): Little or no inhibition

Compound: CN[C@@H]1C[C@H]2O[C@@](C)([C@@H]1OC)n1c3ccccc3c3c4c(c5c6ccccc6n2c5c31)C(=O)NC4 [Staurosporine]
cytotoxicity, reduction of MTT dye [4]: reduction of MTT consistent with cytotoxicity

Compound: O=C1C(Nc2ccccc2)=CC(=O)c2ncccc21 [LY-83583]
effect on IL-1α-induced prostromelysin protein levels (prostromelysin protein; 10 μM): no effect

Compound: NC1=N/C(=C2/CCNC(=O)c3[nH]ccc32)C(=O)N1 [debromohymenialdisine]
inhibition of protein kinase C alpha (protein kinase C alpha): 97%
inhibition of protein kinase C gamma (protein kinase C gamma): 108%
inhibition of protein kinase C beta (protein kinase C beta): 95%
inhibition of Ca2+-calmodulin dependent protein kinase II [5]: 94%

BC-3 immunoreactive band at approximately 230K (aggrecanase-mediated fragment) ([1]; 5.0 μM): absence
Compound: COc1ccc(S(=O)(=O)N(CCO)c2ccccc2CN(C)C/C=C/c2ccc(Cl)cc2)cc1 [KN-93]
effect on IL-1-induced prostromelysin levels (prostromelysin protein; 5.0 μM): no effect
band pattern (ratio of intact aggrecan to 230K fragment), 2-B-6 ([2]; 5.0 μM): pattern similar to IL-1 alone
inhibitory effect on IL-1 induced release of 35S-labelled proteoglycans ([3]; 5 μM): no effect

Compound: COc1ccc2c(c[n+](C)c3c4cc5c(cc4ccc23)OCO5)c1OC [Chelerythrine]
band pattern (ratio of intact aggrecan to 230K fragment), 2-B-6 ([2]; 1.0 μM): pattern similar to IL-1 alone
inhibitory effect on IL-1 induced release of 35S-labelled proteoglycans ([3]; 1 μM): no effect

Compound: COc1cc2ncc(-c3ccccc3)nc2cc1OC [Tyrphostin AG 1296]
effect on IL-1α-induced prostromelysin protein levels (prostromelysin protein; 1 μM): no effect
inhibition of IL-1-induced aggrecan degradation, 2-B-6 ([2]; 1 μM, repeat experiment): no inhibitory effect
percent inhibition of IL-1 induced 35S release ([3]; 1 μM): no inhibition

Compound: Calphostin C
effect on IL-1-induced prostromelysin levels (prostromelysin protein; 0.5 μM): no effect
BC-3 immunoreactive band at approximately 230K (aggrecanase-mediated fragment) ([1]; 0.5 μM): detected
band pattern (ratio of intact aggrecan to 230K fragment), 2-B-6 ([2]; 0.5 μM): pattern similar to IL-1 alone
inhibitory effect on IL-1 induced release of 35S-labelled proteoglycans ([3]; 0.5 μM): no effect

Compound: NC1=NC(=O)/C(=C2\CCNC(=O)c3[nH]c(Br)cc32)N1 [Z-hymenialdisine]
inhibition of cartilage degradation in the bovine cartilage explant assay (bovine cartilage explant): inhibit cartilage degradation

Compound: CKI-7
effect on IL-1α-induced prostromelysin protein levels (prostromelysin protein; 20 μM): no effect
percent inhibition of IL-1 induced 35S release ([3]; 20 μM): no inhibition
